From patent publication US20240316140A1 (UBIO INC., priority 2021, published 2024)
Residues, ends and D or L forms follow the SMILES beside them.

Columns and labels:
HepG2 hepatoma cell line = assay: HepG2 cytotoxicity evaluation of peptide (MTT); format: cell-based, human; conditions: tested 0.01 to 1000 ug/ml, 24 hours, non-toxic concentration
Procedure: After culturing a HepG2 hepatoma cell line, three kinds of synthetic peptides were added by concentration, and MTT (methylthiazol tetrazolium bromide, Sigma Aldrich) was carried out to confirm cell viability. An appropriate amount (1×10^5/well) of cells was seeded on each well in a 24-well plate (BD, Falcon) to treat a sample according to the concentration, and cell viability was confirmed after cultivation for 24 hours in a 37° C. incubator.

HepG2 cells = assay: Hepatocyte protection ability of peptide against t-BHP damage (MTT); format: cell-based, human; conditions: 10 mM t-BHP
Procedure: HepG2 cells, which are hepatoma cell lines, were dispensed in the 24-well plate at 1×10^5/well and cultured. Thereafter, in order to confirm hepatocyte protection ability of three kinds of synthetic peptides, the peptides were treated by concentration, cultured for 23 hours, and then 10 mM of t-BHP was treated for damage to the hepatocytes to culture the same for 90 minutes.

Structure (SMILES)	Test Concentration Setting, Cytotoxicity (HepG2) (HepG2 hepatoma cell line)	Hepatocyte Protection Ability (HepG2 cells; 0.1 ug/ml peptide) [%]	Hepatocyte Protection Ability (HepG2 cells; 1 ug/ml peptide) [%]	Hepatocyte Protection Ability (HepG2 cells; 10 ug/ml peptide) [%]
CC(C)C[C@H](NC(=O)CNC(=O)[C@@H](N)CC(=O)O)C(=O)N[C@@H](Cc1c[nH]cn1)C(=O)N[C@@H](CC(C)C)C(=O)N[C@@H](CCCNC(=N)N)C(=O)O [PEP-2, DGLHLR] (H-DGLHLR-OH; N-terminus and C-terminus assumed)	less than 10 ug/ml	15	20	26
CC(C)[C@H](NC(=O)[C@H](CO)NC(=O)[C@@H]1CCCN1C(=O)[C@H](CC(N)=O)NC(=O)[C@H](Cc1ccccc1)NC(=O)[C@H](CC(=O)O)NC(=O)[C@@H](N)CC(=O)O)C(=O)N[C@@H](Cc1c[nH]cn1)C(=O)O [PEP-3] (H-DDFNPSVH-OH; N-terminus and C-terminus assumed)	less than 10 ug/ml	9	20	20
CC(C)[C@H](N)C(=O)N[C@H](C(=O)N[C@H](C(=O)N[C@@H](CCC(=O)O)C(=O)O)C(C)C)C(C)C [PEP-1, VVVE] (H-VVVE-OH; N-terminus and C-terminus assumed)	less than 10 ug/ml	–	–	7
